Earlier results as cited in patent US20060160783A1, “Novel omeprazole forms and related methods” (Transform Pharmaceuticals, Inc., priority 2004, published 2006).

Columns and labels:
[1] = according to the '188 Patent
[2] = not given; remark: listed apart in the source

Structure (SMILES)	hygroscopicity [1]	solubility in alkaline solutions (alkaline solutions, as a negatively charged ion)	solubility in water (water)	stability in acidic aqueous solutions [2]
COc1ccc2[n-]c([S+]([O-])Cc3ncc(C)c(OC)c3C)nc2c1.[Na+] (centres unmarked) [Omeprazole sodium salt form B]	less hygroscopic than omeprazole form A	–	–	–
COc1ccc2[n-]c([S+]([O-])Cc3ncc(C)c(OC)c3C)nc2c1.[Na+] (centres unmarked) [omeprazole sodium form A]	very hygroscopic	–	–	–
COc1ccc2[nH]c([S+]([O-])Cc3ncc(C)c(OC)c3C)nc2c1 (centres unmarked) [Omeprazole, 5-methoxy-2-[[(4-methoxy-3,5-dimethyl-2-pyridinyl)methyl]sulfinyl]-1H-benzimidazole]	–	very soluble	only slightly soluble	degrades very rapidly
